US7776558B2, “Human G protein-coupled receptor and modulators thereof for the treatment of cell death-related disorders” (Arena Pharmaceuticals, Inc., priority 2003, dated 2010)
Values joined by “and” are separate entries in the source; they are usually repeats but may differ in a detail not shown here. Equal entries are not always repeated. “Also recorded” adds a separate entry of the source. Where two headings read alike, the source gives them in different places. Where no end group is shown, it is not given here.

Key:
[1] = target: T1, human FPRL2 (Homo sapiens, UniProt P25089); assay: [35S]GTPγS binding assay, membranes of transiently transfected CHO cells; type: biochemical; set-up: expressed in transfected cells; host or cells: CHO-K1 cells, transient, pCMV; plasma membranes
T1 sequence (P25089 with tags, fused parts or gaps): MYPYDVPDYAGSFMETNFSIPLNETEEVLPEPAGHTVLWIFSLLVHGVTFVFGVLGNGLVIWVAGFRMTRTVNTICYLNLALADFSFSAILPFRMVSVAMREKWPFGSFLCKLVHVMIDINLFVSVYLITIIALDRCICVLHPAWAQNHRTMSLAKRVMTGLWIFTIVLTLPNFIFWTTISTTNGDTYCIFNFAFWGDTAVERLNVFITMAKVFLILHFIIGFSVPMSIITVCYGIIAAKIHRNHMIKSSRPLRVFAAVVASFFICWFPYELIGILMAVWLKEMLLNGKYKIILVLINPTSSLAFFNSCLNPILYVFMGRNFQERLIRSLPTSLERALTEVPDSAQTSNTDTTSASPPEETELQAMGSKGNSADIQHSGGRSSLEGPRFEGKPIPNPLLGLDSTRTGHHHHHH
Description: (§1) The plasmids used were HA/V5 doubled tagged endogenous FPRL2 in pCMV, HA/V5 double-tagged endogenous FPRL1 in pCMV, HAN5 double-tagged endogenous FPR in pCMV, and pCMV alone (See, Example 1). Transient transfections were carried out on CHO-K1 cells. To a 15 cm dish of confluent cells, 12 μg of plasmid DNA and 60 μl Lipofectamine (Invitrogen, Carlsbad, Calif.) were added to each plate. Twenty-four hours post-infection, plasma membranes were isolated as described below. Assays were then run as described below.
(§2) “Membrane Scrape Buffer” consists of 20 mM HEPES and 10 mM EDTA, pH 7.4; “Membrane Wash Buffer” consists of […] and 0.1 mM EDTA, pH 7.4; “Binding. Buffer” consists of 20 mM HEPES, 100 mM NaCl, and 10 mM MgCl2, pH 7.4.
All materials were kept on ice throughout the procedure. Firstly, the media was aspirated from a confluent monolayer of transfected cells, followed by rinse with 10 ml cold PBS, followed by aspiration. Thereafter, 10 ml of Membrane Scrape Buffer was added to scrape cells; this was followed by transfer of cellular extract into 50 ml centrifuge tubes (centrifuged at 20,000 rpm for 17 minutes at 4° C.). Thereafter, the supernatant was aspirated and the pellet was resuspended in 30 ml Membrane Wash Buffer followed by centrifuging at 20,000 rpm for 17 minutes at 4° C. The supernatant was then aspirated and the pellet resuspended in Binding Buffer. This was then homogenized using a Brinkman Polytron™ homogenizer (15-20 second bursts until the all material is in suspension). This is referred to herein as “Membrane Protein”. A protein determination (Bradford Protein Assay) was carried out, and the protein concentration of the Membrane Protein was adjusted to 1.0 mg/ml with cold Binding Buffer for each of the experimental samples (FPRL2, FPRL1, FPR, pCMV).
GDP Buffer consisted of 37.5 ml Binding Buffer and 2 mg GDP (Sigma, cat. no. G-7127), followed by a series of dilutions in Binding Buffer to obtain 0.2 μM GDP (final concentration of GDP in each well was 0.1 μM GDP); each well comprising a candidate compound, has a final volume of 200 μl consisting of 100 μl GDP Buffer (final concentration, 0.1 μM GDP), 50 μl Membrane Protein in Binding Buffer, and 50 μl [35S]GTPγS (0.6 nM) in Binding Buffer (2.5 μl [35S]GTPγS per 10 ml Binding Buffer).
First, 100 μl GDP Buffer was added to each well of a Wallac Scintistrip™ (Wallac). […] Thereafter, 50 μl of Membrane Protein was added to each well (a control well comprising membranes without the GPCR Protein was also utilized), and pre-incubated for 5-10 minutes at room temperature. Thereafter, 50 μl of [^35S]GTPγS (0.6 nM) in Binding Buffer was added to each well, followed by incubation on a shaker for 60 minutes at room temperature (again, in this example, plates were covered with foil). The assay was then stopped by spinning of the plates at 4000 RPM for 15 minutes at 22° C. The plates were then aspirated with an 8 channel manifold and sealed with plate covers. The plates were then read on a Wallac 1450 using setting “Prot. #37” (as per manufacturer instructions).

[2] = target: T2, FPR (Homo sapiens, UniProt P21462); assay: IP3 assay, HEK293 cells transiently transfected with FPR (negative control); type: cell-based; set-up: Full-Length Cloning of Human GPCRs; expressed in transfected cells; host or cells: HEK293 cells, transient; settings: not shown
T2 sequence (P21462 1-350): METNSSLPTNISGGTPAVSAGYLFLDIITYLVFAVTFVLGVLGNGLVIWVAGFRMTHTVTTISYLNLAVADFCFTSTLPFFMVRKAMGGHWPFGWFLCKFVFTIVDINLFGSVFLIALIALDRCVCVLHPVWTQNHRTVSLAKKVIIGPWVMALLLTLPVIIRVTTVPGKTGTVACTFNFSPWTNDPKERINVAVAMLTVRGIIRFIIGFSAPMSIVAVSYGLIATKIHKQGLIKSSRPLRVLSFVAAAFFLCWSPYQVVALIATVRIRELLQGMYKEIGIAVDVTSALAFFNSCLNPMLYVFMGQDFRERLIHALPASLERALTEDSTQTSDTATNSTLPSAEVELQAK

[3] = target: T2, FPR; assay: [35S]GTPγS binding assay, membranes of transiently transfected CHO cells; type: biochemical; set-up: Full-Length Cloning of Human GPCRs; expressed in transfected cells; host or cells: CHO-K1 cells, transient, pCMV; plasma membranes; settings: FIG. 3 panel C; up to a dose of 10 μM
Description: as §1, §2
All materials were kept on ice throughout the procedure. Firstly, the media was aspirated from a confluent monolayer of transfected cells, followed by rinse with 10 ml cold PBS, followed by aspiration. Thereafter, 10 ml of Membrane Scrape Buffer was added to scrape cells; this was followed by transfer of cellular extract into 50 ml centrifuge tubes (centrifuged at 20,000 rpm for 17 minutes at 4° C.). […]
First, 100 μl GDP Buffer was added to each well of a Wallac Scintistrip™ (Wallac). […] The plates were then read on a Wallac 1450 using setting “Prot. #37” (as per manufacturer instructions).

[4] = read-out: EC50 in [35S]GTPγS binding assay
[5] = FIG. 3 panel A, transiently transfected CHO cells, read-out: EC50 at FPRL2, promoted [35S]GTPγS binding

Compound: CC(C)c1ccc2c(c1)CCC1C(C)(C(N)=O)CCCC21C (stereo not shown) [Compound 1, 7-Isopropyl-1,4a-dimethyl-1,2,3,4,4a,9,10,10a-octahydro-phenanthrene-1-carboxylic acid amide]
- EC75 in [35S]GTPγS binding assay [1]: about 15 μM
- Activity at human FPRL2, FPRL1 and FPR ([1]; by [35S]GTPγS binding assay and by melanophore assay, FIG. 5): robust and selective agonist of FPRL2
- EC50 [1, 4]: ~2800 nM
- IP3 response in HEK293 cells transiently transfected with FPR [2]: no IP3 response

Compound: CC[C@H](C)[C@H](NC(=O)[C@H](CCC(=O)O)NC(=O)[C@H](CO)NC(=O)[C@@H](NC(=O)[C@H](CC(C)C)NC(=O)[C@H](CC(C)C)NC(=O)[C@H](CC(C)C)NC(=O)[C@H](CC(C)C)NC(=O)[C@H](CS)NC(=O)[C@H](CO)NC(=O)[C@H](Cc1ccccc1)NC(=O)CNC(=O)[C@H](CCCNC(=N)N)NC(=O)[C@@H]1CCCN1C(=O)[C@H](C)NC(=O)[C@@H](N)CCSC)[C@@H](C)O)C(=O)N[C@@H](CC(=O)O)C(=O)N[C@@H](CC(C)C)C(=O)N1CCC[C@H]1C(=O)N[C@H](C(=O)N[C@@H](CCCCN)C(=O)N[C@@H](CCCNC(=N)N)C(=O)N[C@@H](CCCNC(=N)N)C(=O)N[C@@H](C)C(=O)O)C(C)C [Humanin]
- EC75 in [35S]GTPγS binding assay [1]: about 1.5 μM
- EC50 [1, 5]: ~320 nM
- EC50 [1, 4]: ~320 nM and ~300 nM
- IP3 response in HEK293 cells transiently transfected with FPR [2]: no IP3 response
- Activity at FPR, promoted [35S]GTPγS binding [3]: Neither Humanin nor [Gly14]-Humanin evidence significant activity

Compound: MAPRGFSCLLLLTGEIDLPVKRRA [[Gly14]-Humanin]
- EC50 [1, 5]: ~72 nM
- EC50 values at FPRL2 relative to the corresponding values at FPRL1 ([1]; FPRL2 versus FPRL1): more than an order of magnitude lower
- Agonist activity and selectivity for FPRL2 ([1]; compared with FPRL1 and FPR, FIG. 3): selective and robust agonists for FPRL2; also recorded: robust and selective agonists for FPRL2
- Activity at FPR, promoted [35S]GTPγS binding [3]: Neither Humanin nor [Gly14]-Humanin evidence significant activity
